Assay results as given in US20260049104A1, “PEPTIDES WITH ANTIMICROBIAL PROPERTIES” (priority 2022, published 2026).
Converted amounts (≈) assume the structure as drawn. Where two headings read alike, the source gives them in different places.

Tests used:
Bacillus subtilis = format: cell-based; conditions: Bacillus subtilis ATCC 6633
From the text: (§1) The experiments were repeated three times.

Morganella morganii = format: cell-based
From the text: as §1

Pseudomonas aeruginosa = format: cell-based
From the text: as §1

Acinetobacter baumannii = system: Acinetobacter baumannii
Experimental: (§2) MIC screening of the peptides against a panel of ATCC and clinical strains was performed using broth microdilution method.^1 Briefly, peptides stock solutions in DMSO (0.1/G TFA) were diluted into Mueller Hinton Broth (MHB), followed by two-fold serial dilution in a 96-well plate. Bacteria culture in mid-log phase was diluted into MHB to yield […] colony-forming units (CFU)/mL. Equal volume of the starting inoculum was added to the peptide samples, then incubated for 18-20 h (37° C., 120 rpm). OD600 of the samples was then measured using Tecan Infinite M200 (TECAN, Männedorf, Switzerland). MIC is defined as the lowest peptide concentration to achieve more than 90% reduction in OD600 relative to the drug-free control. The experiments were repeated three times. Colistin-resistant clinical isolates are a kind gift from Dr. Jeanette Koh (National University Hospital, Singapore). Multidrug-resistant clinical isolates are a kind gift from Dr. Lakshminarayanan Rajamani (Singapore Eye Research Institute, Singapore).
(§3) Kanamycin and ampicillin were used as antibacterial control agents. […] Then, sequential 2-fold serial dilutions of the mix were diluted in 50 μL MH broth and 50 μL cell cultures were added to wells. […] All assays were carried out in triplicate.

Enterobacter cloacae = system: Enterobacter cloacae
Experimental: as §2, §3

Escherichia coli = system: Escherichia coli
Experimental: as §2, §3

Klebsiella pneumoniae = system: Klebsiella pneumoniae
Experimental: as §2, §3

Staphylococcus aureus = system: Staphylococcus aureus
Experimental: as §2, §3

Bacillus cereus = Bacillus cereus ATCC 11778
Experimental: as §2

Enterobacteriaceae = system: Enterobacteriaceae
Experimental: as §2

Salmonella entereditis = Salmonella entereditis ATCC 13076
Experimental: as §2

Salmonella typhimurium = Salmonella typhimurium ATCC 14028
Experimental: as §2

Shigella flexneri = Shigella flexneri M90T
Experimental: as §2

E. coli M6 [1] = conditions: E. coli M6, over 24 h
Experimental: Peptides stock solutions were diluted into MHB to desired concentrations. Bacteria culture in mid-log phase was diluted into MHB to yield 10^6 CFU/mL. The mixture was incubated at 37° C. with shaking. At each time point, 10 μL of the sample was drawn out and subjected to ten-fold serial dilution. 20 μL of relevant dilutions was dropped onto MHA plate using the drop plate method. The plate was incubated for 18-20 h at 37° C. Colony number was counted, and used for calculating the CFU/mL according to the equation:
CFU/mL=Colony count×50×dilution factor

E. coli M6 [2] = system: E. coli M6
Experimental: Resistance development of E. coli M6 against xenorceptide A2 was assessed by serial passaging of the bacteria in broth containing subinhibitory concentrations of the peptide. In brief, bacteria culture at mid-log phase was diluted to 10^5-10^6 CFU/mL in MHB containing 0.25×, 0.5×, 1×, 2×, and 4×MIC of the peptide. […] A new set of peptide concentration range was added to the cultures based on the latest MIC. This process was repeated over 14 days for three independent starting cultures.

E. coli M6 [3] = system: E. coli M6; remark: listed apart in the source
Experimental: Female C57BL/6NTac mice aged 6-8 weeks were acquired from InVivos Pte Ltd (Singapore, Singapore). Solutions for injections were prepared fresh in pharmaceutical grade saline and filter-sterilized. Murine peritonitis model was established according to literature. Briefly, healthy mice were rendered neutropenic by administering i.p. injection (0.5 mL) of cyclophosphamide on day −4 (150 mg/kg) and day −1 (100 mg/kg). On day 0, mice were infected with E. coli M6 (10^9 CFU/mL) through i.p. injection (0.1 mL). […] At 2 h post-treatment, mice were humanely euthanized by carbon dioxide asphyxiation and cervical dislocation. Sterile PBS (3 mL) was injected into the peritoneal cavity, followed by abdominal massage and collection of peritoneal fluid (1-2 mL). Blood (0.3-0.5 mL) was collected through cardiac puncture. Liver, spleen, and kidney were surgically removed and stored in 0.1% Triton X-100 (in PBS). Tissue homogenization was performed using gentleMACS dissociator (Miltenyi Biotec, Germany) by following a published protocol. Cell aggregates were removed using a 30 μm mesh MACS SmartStrainer (Miltenyi Biotec). Blood, peritoneal fluid, and tissue homogenates were plated on LB agar and incubated overnight for colony counting.

[4] = E. coli M6, sub-inhibitory concentrations, over two weeks
[5] = 50 mg/kg single i.p. dose, 5 h post-treatment, neutropenic mice infected with E. coli M6

Work on `CC(C)[C@@H]1NC(=O)[C@@H](N)Cc2c[nH]c3cc(ccc23)[C@H](C(N)=O)[C@@H](C(=O)N[C@@H](C)C(=O)N[C@H]2Cc3cccc(c3)[C@H](CCNC(=N)N)[C@@H](C(=O)N[C@H]3Cc4c[nH]c5cc(ccc45)[C@H](CCCN)[C@@H](C(=O)N[C@@H](CO)C(=O)N[C@@H](Cc4ccccc4)C(=O)O)NC(=O)[C@H](CO)NC3=O)NC(=O)[C@H](C)NC2=O)NC1=O` [xenorceptide A2] yielded an MIC (Bacillus subtilis) of over 64 µg/mL, an MIC (Morganella morganii; Morganella morganii ATCC 25830) of 32 µg/mL (≈ 21.4 µM) and an MIC (Morganella morganii; Morganella morganii CRE1001) of 32 µg/mL (≈ 21.4 µM). The MIC (Pseudomonas aeruginosa; Pseudomonas aeruginosa ATCC 9027) was 64 µg/mL (≈ 42.9 µM), the MIC (Pseudomonas aeruginosa; Pseudomonas aeruginosa DM4150R) was 64 µg/mL (≈ 42.9 µM) and the MIC (Pseudomonas aeruginosa; Pseudomonas aeruginosa DM23376) was over 64 µg/mL. For the same compound, the MIC (Pseudomonas aeruginosa; Pseudomonas aeruginosa DR4877/07) was 64 µg/mL (≈ 42.9 µM), the MIC (Pseudomonas aeruginosa; Pseudomonas aeruginosa DR5790/07) was 64 µg/mL (≈ 42.9 µM) and the MIC (Acinetobacter baumannii; Acinetobacter baumannii ACBA1001) was 32 µg/mL (≈ 21.4 µM). The MIC (Acinetobacter baumannii; Acinetobacter baumannii ACBA1002) was 32 µg/mL (≈ 21.4 µM), the MIC (Acinetobacter baumannii; Acinetobacter baumannii ACBA1003) was 32 µg/mL (≈ 21.4 µM) and the MIC (Acinetobacter baumannii; Acinetobacter baumannii ACBA1004) was 64 µg/mL (≈ 42.9 µM). It also gave an MIC (Acinetobacter baumannii; Acinetobacter baumannii ATCC 19606) of over 64 µg/mL, an MIC (Enterobacter cloacae; Enterobacter cloacae CRE1010) of 4 µg/mL (≈ 2.68 µM) and an MIC (Enterobacter cloacae; Enterobacter cloacae CRE1014) of 16 µg/mL (≈ 10.7 µM). The MIC (Enterobacter cloacae; Enterobacter cloacae CRE1015) was 32 µg/mL (≈ 21.4 µM), the MIC (Enterobacter cloacae; Enterobacter cloacae CRE1016) was 16 µg/mL (≈ 10.7 µM) and the MIC (Enterobacter cloacae; Enterobacter cloacae CRE1017) was 32 µg/mL (≈ 21.4 µM). It also gave an MIC (Escherichia coli; Escherichia coli ATCC 25922) of 4 µg/mL (≈ 2.68 µM), an MIC (Escherichia coli; Escherichia coli CRE1006, carbapenem-resistant clinical isolate) of 4 µg/mL (≈ 2.68 µM) and an MIC (Escherichia coli; Escherichia coli M6, carbapenem- and colistin-resistant clinical isolate) of 8 µg/mL (≈ 5.36 µM). It also gave an MIC (Escherichia coli; Escherichia coli M10, carbapenem- and colistin-resistant clinical isolate) of 4 µg/mL (≈ 2.68 µM), an MIC (Escherichia coli; Escherichia coli M11, carbapenem- and colistin-resistant clinical isolate) of 4 µg/mL (≈ 2.68 µM) and an MIC (Klebsiella pneumoniae; Klebsiella pneumoniae ATCC 700603) of 8 µg/mL (≈ 5.36 µM). The MIC (Klebsiella pneumoniae; Klebsiella pneumoniae CRE 1007) was 8 µg/mL (≈ 5.36 µM), the MIC (Klebsiella pneumoniae; Klebsiella pneumoniae CRE1008) was 8 µg/mL (≈ 5.36 µM) and the MIC (Klebsiella pneumoniae; Klebsiella pneumoniae CRE1011) was 8 µg/mL (≈ 5.36 µM). The MIC (Klebsiella pneumoniae; Klebsiella pneumoniae CRE1012) was 8 µg/mL (≈ 5.36 µM), the MIC (Staphylococcus aureus; Staphylococcus aureus ATCC 29737) was over 64 µg/mL and the MIC (Staphylococcus aureus; Staphylococcus aureus ATCC 43300) was over 64 µg/mL. The MIC (Bacillus cereus) was over 64 µg/mL, the “potency compared with dynobactin and darobactin” value (Enterobacteriaceae; against Enterobactericeae) was “more potent than dynobactin and has comparable potency to darobactin” and the MIC values (Enterobacteriaceae; several carbapenamase-resistant Enterobacteriaceae (CRE)) was 4 to 8 µg/mL. For the same compound, the MIC (Salmonella entereditis) was 8 µg/mL (≈ 5.36 µM), the MIC (Salmonella typhimurium) was 8 µg/mL (≈ 5.36 µM) and the MIC (Shigella flexneri) was 2 µg/mL (≈ 1.34 µM). The “bactericidal effect: reduction in bacteria count” value (E. coli M6 [1]; at 8×MIC) was 3 log, the “bactericidal effect: reduction in bacteria count” value (E. coli M6 [1]; at both 4× and 8×MIC) was 3 log and the “level at which resistance development halted” value (E. coli M6 [2]; E. coli) was 4 ×MIC. The “period over which resistance development occurred” value (E. coli M6 [2]; E. coli) was 6 to 8 days, the “MIC of strains obtained by serial passage” value (E. coli M6 [2]; [4]) was 32 µg/mL and the “resistance of strains obtained by serial passage” value (E. coli M6 [2]; [4]) was about 4 fold. The “cytotoxicity: concentration up to which no cytotoxicity was shown” value (HepG2 human cells) was over 256 µg/mL, the “decrease in colony count relative to saline control, blood” value (E. coli M6 [3]; [5]) was 7 log and the “decrease in colony count relative to saline control, liver” value (E. coli M6 [3]; [5]) was 4 log. The “decrease in colony count relative to saline control, peritoneal fluid” value (E. coli M6 [3]; [5]) was 6 log, the “reduction in bacteria burden, kidney” value (E. coli M6 [3]; [5]) was 2 log and the “reduction in bacteria burden, spleen” value (E. coli M6 [3]; [5]) was 2 log. The “in vivo efficacy compared with colistin” value (E. coli M6 [3]; both at 5 mg/kg, single i.p. dose) was “comparable efficacy to colistin”.
